Laboratory results reported in patent publication US20030212142A1, “Use of derivatives of valproic acid and 2-valproenic acid amides for the treatment of mania in bipolar disorder” (Yissum Research Development Company of the Hebrew …, priority 2000, published 2003).
Entries after “also recorded” stand apart in the source; their conditions may differ.

System: amphetamine-induced hyperactivity
Assay: amphetamine-induced hyperactivity model of mania in rats (activity meter, rearing)
Type: in vivo, male Sprague Dawley rats
Settings: Compound 1 200 mg/kg by gavage; for Vertical Activity (Rearing), Mean Activity, Amphetamine challenge: amphetamine 0.5 mg/kg s.c. challenge; for Vertical Activity (Rearing), Mean Activity, Amphetamine challenge / Vertical Activity (Rearing), Mean activity, Saline challenge: movements per 30 min, Li+ 6 mg/kg by gavage; for Vertical Activity (Rearing), Mean activity, Saline challenge: saline s.c. challenge
Protocol: Evaluation of possible anti-bipolar effects of Compound 1 was followed in the amphetamine-induced hyperactivity model of mania in rats. Activities of rats were followed in an activity meter (Elvicom, Israel) based on 2 levels laser beams and equipped with a computerized system that can count the vertical movements of rats (rearing). Activities were recorded for -30 min for each session, and the resultant appropriate movement reported per 30 min. Rats were housed under a 12 hr light/dark cycle and the behavioral testing was conducted in the light phase.
The activities of rats following treatment with Compound 1, Li^+ (the standard drug for mania), and a control group were followed before and after being challenged with amphetamine. The statistical analyses were conducted using a two way ANOVA for the effects of drugs, amphetamine (repeated measure) and the drug-amphetamine interaction.
In these experiments 30 male Sprague Dawley (weighing 200-250 g) rats were equally divided into 3 treatment groups: control, Li^+ (6 mg/kg by gavage)), and Compound 1 (200 mg/kg by gavage) (Drugs were suspended in 5% methyl cellulose). Half of the rats in each group were challenged (administered) amphetamine (0.5 mg/kg subsutaneously (s.c.)) and the other half was given saline (s.c.). Ten minutes later all rats were placed in the activity meter. One week later the procedure was repeated, except that the order of treatment was reversed; those rats which received saline on the first day were given amphetamine and those given amphetamine the first day were administered saline.

Row | SMILES | Vertical Activity (Rearing), Mean Activity, Amphetamine challenge | effect on amphetamine-induced rearing compared to control animals challenged with amphetamine (amphetamine 0.5 mg/kg s.c., p=0.06) | Vertical Activity (Rearing), Mean activity, Saline challenge
1 | CCCC(CCC)C(=O)NCC(N)=O [Compound 1] | 71.3 | decreases amphetamine-induced hyperactivity; also recorded: reduced the rearing; also recorded: decreased the induced rearing in a similar manner as Li^+ | 34.1
2 | [Li] [Li, lithium, reference compound] | 126.7 | – | 59.8
